Assay results as given in article PMC2974784 (Pharmacological research : the official journal of the …, 2010).
Counter-ions that a name gives are not always drawn. Like-named read-outs stand apart in the source and are kept apart here. Each block holds one compound with its values, some of them ahead of it.

Key:
Assay type in all cases: cell-based
P2Y1 receptor [1] = molecular target: T1, P2Y1 receptor (Rattus norvegicus, UniProt P49651); assay: agonist-induced intracellular calcium mobilization in RBL-2H3 cells
T1 sequence (P49651 whole entry): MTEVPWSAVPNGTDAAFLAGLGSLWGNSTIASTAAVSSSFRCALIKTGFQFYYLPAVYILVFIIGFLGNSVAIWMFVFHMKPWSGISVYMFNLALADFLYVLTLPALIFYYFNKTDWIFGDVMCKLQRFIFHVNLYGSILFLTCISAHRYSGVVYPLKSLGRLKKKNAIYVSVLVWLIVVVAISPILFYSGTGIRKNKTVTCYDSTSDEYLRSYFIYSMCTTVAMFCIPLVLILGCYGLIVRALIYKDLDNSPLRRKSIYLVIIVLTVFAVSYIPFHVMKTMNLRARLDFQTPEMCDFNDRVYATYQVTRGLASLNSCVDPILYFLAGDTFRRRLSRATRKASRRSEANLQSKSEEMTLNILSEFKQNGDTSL

P2Y13 receptor = molecular target: T2, P2Y13 receptor (Rattus norvegicus, UniProt Q6GUG4)
T2 sequence (Q6GUG4 1-336): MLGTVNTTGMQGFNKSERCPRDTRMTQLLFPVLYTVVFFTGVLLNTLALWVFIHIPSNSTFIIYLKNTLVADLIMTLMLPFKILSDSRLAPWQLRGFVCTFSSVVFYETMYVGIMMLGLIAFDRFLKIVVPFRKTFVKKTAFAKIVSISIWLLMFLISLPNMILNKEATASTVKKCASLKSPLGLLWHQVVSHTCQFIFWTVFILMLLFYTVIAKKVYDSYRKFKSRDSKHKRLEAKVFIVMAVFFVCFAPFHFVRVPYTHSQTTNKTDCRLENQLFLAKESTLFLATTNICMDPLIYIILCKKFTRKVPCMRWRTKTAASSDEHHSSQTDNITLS

P2Y1 receptor [2] = molecular target: T1, P2Y1 receptor
P2Y1 receptor [3] = molecular target: T1, P2Y1 receptor; remark: listed apart in the source

EC50 (P2Y1 receptor [1]): 37.8 ± 11.3 nM
SMILES: CSc1nc(N)c2ncn([C@@H]3O[C@H](COP(=O)(O)OP(=O)(O)O)[C@@H](O)[C@H]3O)c2n1 [2-MeSADP]

SMILES: Nc1ncnc2c1ncn2[C@@H]1O[C@H](COP(=O)(O)OP(=O)(O)O)[C@@H](O)[C@H]1O [ADP]
EC50 (P2Y13 receptor): 4700 ± 800 nM
EC50 (P2Y1 receptor [2]): 278 ± 42 nM

EC50 (P2Y1 receptor [3]): 4.5 ± 0.8 nM
SMILES: CSc1nc(N)c2ncn([C@H]3[C@H](O)[C@H](O)[C@]4(COP(=O)(O)OP(=O)(O)O)C[C@H]34)c2n1 [MRS2365, [[(1R,2R,3S,4R,5S)-4-[6-amino-2-(methylthio)-9H-purin-9-yl]-2,3-dihydroxybicyclo[3.1.0]hex-1-yl]methyl]diphosphoric acid mono ester trisodium salt]
